The values below are quoted from earlier work in patent US5084277A, “Vaginal progesterone tablet” (priority 1990, dated 1992).

Bounds are passed on as bounds.

Assay in data set [1]: not given
The source holds these as a separate data set.

In the case of `CC(=O)[C@H]1CC[C@H]2[C@@H]3CCC4=CC(=O)CC[C@]4(C)[C@H]3CC[C@]12C` [progesterone, pregn-4-ene-3,20-dione], the “Plasma half-life of endogenous progesterone” value (endogenous) is “a few minutes”. Also, the “Storage of progesterone in body fat” value (in vivo) is listed as “A small amount of progesterone is stored in body fat”. Further, the “Time within which all exogenous progesterone is metabolized” value (suggested by Myers et al.) was at most 24 h. Further, the “Tolerability of parenteral administration” value in data set [1] (deep intramuscular injections) was “often very painful and irritating at the site of injection”. In addition, in data set [1] (in vivo, po), the “Serum levels after oral administration” value is given as “significant but highly variable serum levels”. Besides, the “Absorption by the rectal route” value in data set [1] (rectal) is “highly variable”.
